What was measured:
[1] = DRUGMATRIX: ATPase, Na+/K+ enzyme inhibition (substrate: ATP); type: tissue-based, Sus scrofa, Heart; details: Not Active = under 50% inhibition at 10 µM
[2] = DRUGMATRIX: Serotonin (5-Hydroxytryptamine) 5-HT3 radioligand binding (ligand: [3H] GR-65630); type: cell membranes, Membrane; details: hek293; Not Active = under 50% inhibition at 10 µM
[3] = biological target: Vascular endothelial growth factor receptor 1 (Homo sapiens, UniProt P17948); type: cell-based; details: huvec; note: in other assays of this panel Not Active means under 50% inhibition at 10 µM
[4] = DRUGMATRIX: GABAA, Muscimol, Central radioligand binding (ligand: [3H] Muscimol); type: cell membranes, Rattus norvegicus, Wistar, Brain, Membrane; details: Not Active = under 50% inhibition at 10 µM
[5] = DRUGMATRIX: GABAA, Flunitrazepam, Central radioligand binding (ligand: [3H] Flunitrazepam); type: cell membranes, Rattus norvegicus, Wistar, Brain, Membrane; details: Not Active = under 50% inhibition at 10 µM
[6] = DRUGMATRIX: Glutamate, Kainate radioligand binding (ligand: [3H] Kainic acid); type: cell membranes, Rattus norvegicus, Wistar, Brain, Membrane; details: Not Active = under 50% inhibition at 10 µM
[7] = DRUGMATRIX: Leukotriene, BLT (LTB4) radioligand binding (ligand: [3H]LTB4); type: cell membranes, Membrane; details: u-937; Not Active = under 50% inhibition at 10 µM
Melanocortin receptor 5 = Melanocortin receptor 5 (Homo sapiens, UniProt P33032); type: cell membranes, Membrane; details: hek293; note: in other assays of this panel Not Active means under 50% inhibition at 10 µM
[8] = biological target: T1, Muscarinic acetylcholine receptor M5 (Homo sapiens, UniProt P08912); type: cell membranes, CHO-K1, Membrane; details: cho-k1; note: in other assays of this panel Not Active means under 50% inhibition at 10 µM
T1 sequence (P08912 whole entry): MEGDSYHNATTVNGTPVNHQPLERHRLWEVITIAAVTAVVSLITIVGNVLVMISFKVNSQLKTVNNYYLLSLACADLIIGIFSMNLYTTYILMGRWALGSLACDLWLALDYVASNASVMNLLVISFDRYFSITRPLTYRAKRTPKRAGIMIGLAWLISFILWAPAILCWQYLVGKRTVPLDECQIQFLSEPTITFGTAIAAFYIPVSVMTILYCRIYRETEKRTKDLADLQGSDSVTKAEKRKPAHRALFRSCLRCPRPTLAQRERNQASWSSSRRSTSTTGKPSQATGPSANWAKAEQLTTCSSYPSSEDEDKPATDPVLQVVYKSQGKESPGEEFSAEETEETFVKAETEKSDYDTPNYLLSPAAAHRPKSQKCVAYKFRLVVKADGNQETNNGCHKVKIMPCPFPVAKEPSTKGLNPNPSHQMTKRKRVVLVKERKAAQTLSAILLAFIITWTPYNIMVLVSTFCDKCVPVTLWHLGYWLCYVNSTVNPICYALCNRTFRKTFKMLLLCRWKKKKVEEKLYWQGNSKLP

Cytochrome P450 2C9 = Cytochrome P450 2C9 (Homo sapiens, UniProt P11712); details: bti-tn-5b1-4; note: in other assays of this panel Not Active means under 50% inhibition at 10 µM
Glucocorticoid receptor = biological target: T2, Glucocorticoid receptor (Homo sapiens, UniProt P04150); details: hela s3; note: in other assays of this panel Not Active means under 50% inhibition at 10 µM
T2 sequence (P04150 whole entry): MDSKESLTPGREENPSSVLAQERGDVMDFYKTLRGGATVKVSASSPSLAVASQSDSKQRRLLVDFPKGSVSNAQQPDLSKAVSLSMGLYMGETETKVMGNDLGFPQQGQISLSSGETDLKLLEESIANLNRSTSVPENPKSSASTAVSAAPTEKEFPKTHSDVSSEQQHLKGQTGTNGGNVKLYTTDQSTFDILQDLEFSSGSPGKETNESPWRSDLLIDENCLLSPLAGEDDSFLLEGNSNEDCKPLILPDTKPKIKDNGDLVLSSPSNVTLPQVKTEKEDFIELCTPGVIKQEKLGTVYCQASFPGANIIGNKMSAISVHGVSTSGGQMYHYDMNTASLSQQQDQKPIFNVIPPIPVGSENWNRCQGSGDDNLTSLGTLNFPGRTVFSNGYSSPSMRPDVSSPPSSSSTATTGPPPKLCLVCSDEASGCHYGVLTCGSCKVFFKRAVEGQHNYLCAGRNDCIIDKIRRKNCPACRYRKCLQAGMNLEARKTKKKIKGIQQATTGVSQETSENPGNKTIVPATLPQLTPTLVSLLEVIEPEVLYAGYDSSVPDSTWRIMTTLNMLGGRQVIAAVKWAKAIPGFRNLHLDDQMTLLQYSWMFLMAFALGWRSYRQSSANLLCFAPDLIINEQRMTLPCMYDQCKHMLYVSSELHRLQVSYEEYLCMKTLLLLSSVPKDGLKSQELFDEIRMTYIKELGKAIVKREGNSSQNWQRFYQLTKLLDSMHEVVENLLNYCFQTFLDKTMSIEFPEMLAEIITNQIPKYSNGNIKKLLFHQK

Chain of Melanocortin receptor 5 (P33032 whole entry): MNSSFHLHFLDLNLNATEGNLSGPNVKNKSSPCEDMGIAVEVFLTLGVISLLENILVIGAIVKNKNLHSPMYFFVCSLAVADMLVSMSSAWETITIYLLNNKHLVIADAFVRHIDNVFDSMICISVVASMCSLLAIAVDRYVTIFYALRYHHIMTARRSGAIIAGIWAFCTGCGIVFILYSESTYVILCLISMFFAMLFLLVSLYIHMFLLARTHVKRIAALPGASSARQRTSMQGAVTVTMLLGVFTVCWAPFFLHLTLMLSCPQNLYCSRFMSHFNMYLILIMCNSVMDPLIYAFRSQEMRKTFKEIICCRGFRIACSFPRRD
Chain of Vascular endothelial growth factor receptor 1 (P17948 whole entry): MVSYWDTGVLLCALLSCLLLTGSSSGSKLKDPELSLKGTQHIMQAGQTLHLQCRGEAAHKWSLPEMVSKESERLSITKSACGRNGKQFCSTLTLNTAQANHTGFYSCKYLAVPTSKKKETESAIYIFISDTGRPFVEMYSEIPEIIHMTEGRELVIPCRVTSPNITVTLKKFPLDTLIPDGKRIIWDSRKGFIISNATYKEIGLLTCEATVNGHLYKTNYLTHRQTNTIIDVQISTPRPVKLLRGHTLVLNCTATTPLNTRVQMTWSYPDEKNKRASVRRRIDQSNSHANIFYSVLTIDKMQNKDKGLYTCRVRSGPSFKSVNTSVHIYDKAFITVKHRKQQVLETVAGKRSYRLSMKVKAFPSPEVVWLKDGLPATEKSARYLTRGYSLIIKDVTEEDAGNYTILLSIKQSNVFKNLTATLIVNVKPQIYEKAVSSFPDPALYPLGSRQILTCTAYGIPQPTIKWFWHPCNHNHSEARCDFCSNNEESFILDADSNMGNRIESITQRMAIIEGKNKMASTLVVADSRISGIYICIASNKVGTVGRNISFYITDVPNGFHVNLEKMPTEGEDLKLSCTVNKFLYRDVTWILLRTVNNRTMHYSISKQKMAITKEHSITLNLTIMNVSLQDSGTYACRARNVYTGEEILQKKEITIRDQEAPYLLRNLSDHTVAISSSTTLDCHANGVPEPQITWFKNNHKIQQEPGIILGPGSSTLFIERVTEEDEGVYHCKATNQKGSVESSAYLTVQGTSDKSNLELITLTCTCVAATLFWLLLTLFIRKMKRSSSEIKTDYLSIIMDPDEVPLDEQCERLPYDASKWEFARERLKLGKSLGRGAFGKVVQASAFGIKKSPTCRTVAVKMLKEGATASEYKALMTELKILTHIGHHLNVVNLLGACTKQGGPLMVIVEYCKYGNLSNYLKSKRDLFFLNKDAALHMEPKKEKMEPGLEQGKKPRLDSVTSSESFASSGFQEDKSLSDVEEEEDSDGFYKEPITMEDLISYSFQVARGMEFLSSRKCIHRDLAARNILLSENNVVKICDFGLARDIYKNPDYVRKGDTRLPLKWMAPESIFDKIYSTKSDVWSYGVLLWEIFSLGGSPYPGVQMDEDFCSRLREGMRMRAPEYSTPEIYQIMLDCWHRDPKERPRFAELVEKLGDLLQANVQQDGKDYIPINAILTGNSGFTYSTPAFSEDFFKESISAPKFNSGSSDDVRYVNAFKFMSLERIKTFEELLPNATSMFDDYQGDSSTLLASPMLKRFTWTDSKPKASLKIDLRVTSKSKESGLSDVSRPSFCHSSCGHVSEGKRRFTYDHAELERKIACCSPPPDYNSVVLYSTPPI
Chain of Cytochrome P450 2C9 (P11712 whole entry): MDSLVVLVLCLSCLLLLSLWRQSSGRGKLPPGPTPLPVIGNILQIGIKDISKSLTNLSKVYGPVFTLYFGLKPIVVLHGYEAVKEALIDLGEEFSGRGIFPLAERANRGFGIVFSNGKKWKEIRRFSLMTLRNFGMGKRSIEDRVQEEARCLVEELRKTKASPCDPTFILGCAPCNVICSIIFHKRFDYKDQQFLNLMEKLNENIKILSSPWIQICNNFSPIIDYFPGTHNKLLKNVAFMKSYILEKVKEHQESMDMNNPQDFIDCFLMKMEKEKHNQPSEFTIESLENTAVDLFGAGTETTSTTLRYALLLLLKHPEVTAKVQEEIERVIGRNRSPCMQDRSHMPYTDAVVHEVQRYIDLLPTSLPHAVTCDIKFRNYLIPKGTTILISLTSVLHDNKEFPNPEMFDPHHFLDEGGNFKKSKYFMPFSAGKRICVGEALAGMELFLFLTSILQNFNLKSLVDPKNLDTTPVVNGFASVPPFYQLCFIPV

CC(=O)N[C@@H]1[C@H](Oc2c3cc4cc2Oc2ccc(cc2Cl)[C@@H](O[C@@H]2O[C@@H](CO)[C@@H](O)[C@H](O)[C@@H]2NC(C)=O)[C@@H]2NC(=O)[C@H](NC(=O)[C@@H]4NC(=O)[C@H]4NC(=O)[C@@H](Cc5ccc(c(Cl)c5)O3)NC(=O)[C@H](N)c3ccc(O)c(c3)Oc3cc(O)cc4c3)c3ccc(O)c(c3)-c3c(O[C@H]4O[C@H](CO)[C@@H](O)[C@@H](O)[C@@H]4O)cc(O)cc3[C@@H](C(=O)O)NC2=O)O[C@@H](CO)[C@@H](O)[C@@H]1O
Not Active: IC50 [1] | Ki [1] | IC50 [2] | Ki [2] | IC50 [3] | IC50 [4] | Ki [4] | IC50 [5] | Ki [5] | IC50 [6] | Ki [6] | IC50 [7] | Ki [7] | IC50 (Melanocortin receptor 5) | IC50 [8] | IC50 (Cytochrome P450 2C9) | Ki (Cytochrome P450 2C9) | IC50 (Glucocorticoid receptor)

CC(=O)N1CCN(c2ccc(OCC3COC(Cn4ccnc4)(c4ccc(Cl)cc4Cl)O3)cc2)CC1 (centres undefined) [KETOCONAZOLE]
Not Active: IC50 [1] | Ki [1] | IC50 [2] | Ki [2] | IC50 [3] | IC50 [4] | Ki [4] | IC50 [5] | Ki [5] | IC50 [6] | Ki [6] | IC50 [7] | Ki [7] | IC50 (Melanocortin receptor 5) | IC50 [8] | IC50 (Cytochrome P450 2C9) | Ki (Cytochrome P450 2C9) | IC50 (Glucocorticoid receptor)

COCCCOc1ccnc(C[S+]([O-])c2nc3ccccc3[nH]2)c1C (centres undefined) [RABEPRAZOLE]
Not Active: IC50 [1] | Ki [1] | IC50 [2] | Ki [2] | IC50 [3] | IC50 [4] | Ki [4] | IC50 [5] | Ki [5] | IC50 [6] | Ki [6] | IC50 [7] | Ki [7] | IC50 (Melanocortin receptor 5) | IC50 [8] | IC50 (Cytochrome P450 2C9) | Ki (Cytochrome P450 2C9) | IC50 (Glucocorticoid receptor)

CNC(=C[N+](=O)[O-])NCCSCc1ccc(CN(C)C)o1 [RANITIDINE]
Not Active: IC50 [1] | Ki [1] | IC50 [2] | Ki [2] | IC50 [3] | IC50 [4] | Ki [4] | IC50 [5] | Ki [5] | IC50 [6] | Ki [6] | IC50 [7] | Ki [7] | IC50 (Melanocortin receptor 5) | IC50 [8] | IC50 (Cytochrome P450 2C9) | Ki (Cytochrome P450 2C9) | IC50 (Glucocorticoid receptor)

CO[C@H]1/C=C/O[C@@]2(C)Oc3c(C)c(O)c4c(c3C2=O)C2=NC3(CCN(CC(C)C)CC3)NC2=C(NC(=O)/C(C)=C\C=C\[C@H](C)[C@H](O)[C@@H](C)[C@@H](O)[C@@H](C)[C@H](OC(C)=O)[C@@H]1C)C4=O [RIFABUTIN]
Not Active: IC50 [1] | Ki [1] | IC50 [2] | Ki [2] | IC50 [3] | IC50 [4] | Ki [4] | IC50 [5] | Ki [5] | IC50 [6] | Ki [6] | IC50 [7] | Ki [7] | IC50 (Melanocortin receptor 5) | IC50 [8] | IC50 (Cytochrome P450 2C9) | Ki (Cytochrome P450 2C9) | IC50 (Glucocorticoid receptor)

CC(C)CC(N(C)C)C1(c2ccc(Cl)cc2)CCC1 (centres undefined) [SIBUTRAMINE]
Not Active: IC50 [1] | Ki [1] | IC50 [2] | Ki [2] | IC50 [3] | IC50 [4] | Ki [4] | IC50 [5] | Ki [5] | IC50 [6] | Ki [6] | IC50 [7] | Ki [7] | IC50 (Melanocortin receptor 5) | IC50 [8] | IC50 (Cytochrome P450 2C9) | Ki (Cytochrome P450 2C9) | IC50 (Glucocorticoid receptor)

[H]/N=C(/N)N[C@H]1[C@H](O)[C@@H](O)[C@H](O[C@@H]2O[C@@H](C)[C@](O)(C=O)[C@H]2O[C@@H]2O[C@@H](CO)[C@H](O)[C@@H](O)[C@@H]2NC)[C@@H](N/C(N)=N\[H])[C@@H]1O [STREPTOMYCIN]
Not Active: IC50 [1] | Ki [1] | IC50 [2] | Ki [2] | IC50 [3] | IC50 [4] | Ki [4] | IC50 [5] | Ki [5] | IC50 [6] | Ki [6] | IC50 [7] | Ki [7] | IC50 (Melanocortin receptor 5) | IC50 [8] | IC50 (Cytochrome P450 2C9) | Ki (Cytochrome P450 2C9) | IC50 (Glucocorticoid receptor)

Cc1cc(C)nc(NS(=O)(=O)c2ccc(N)cc2)n1 [SULFAMETHAZINE]
Not Active: IC50 [1] | Ki [1] | IC50 [2] | Ki [2] | IC50 [3] | IC50 [4] | Ki [4] | IC50 [5] | Ki [5] | IC50 [6] | Ki [6] | IC50 [7] | Ki [7] | IC50 (Melanocortin receptor 5) | IC50 [8] | IC50 (Cytochrome P450 2C9) | Ki (Cytochrome P450 2C9) | IC50 (Glucocorticoid receptor)

Reference: ChEMBL document CHEMBL1909046, “DrugMatrix in vitro pharmacology data”
